Reference: ChEMBL document CHEMBL4732198, “HDAC7 Inhibition by Phenacetyl and Phenylbenzoyl Hydroxamates” (J Med Chem, 2021)
One block for each compound: values may come before it.

Experiments:
Histone deacetylase 7 = target: T1, Histone deacetylase 7 (Homo sapiens, UniProt Q8WUI4)
T1 sequence (Q8WUI4 whole entry): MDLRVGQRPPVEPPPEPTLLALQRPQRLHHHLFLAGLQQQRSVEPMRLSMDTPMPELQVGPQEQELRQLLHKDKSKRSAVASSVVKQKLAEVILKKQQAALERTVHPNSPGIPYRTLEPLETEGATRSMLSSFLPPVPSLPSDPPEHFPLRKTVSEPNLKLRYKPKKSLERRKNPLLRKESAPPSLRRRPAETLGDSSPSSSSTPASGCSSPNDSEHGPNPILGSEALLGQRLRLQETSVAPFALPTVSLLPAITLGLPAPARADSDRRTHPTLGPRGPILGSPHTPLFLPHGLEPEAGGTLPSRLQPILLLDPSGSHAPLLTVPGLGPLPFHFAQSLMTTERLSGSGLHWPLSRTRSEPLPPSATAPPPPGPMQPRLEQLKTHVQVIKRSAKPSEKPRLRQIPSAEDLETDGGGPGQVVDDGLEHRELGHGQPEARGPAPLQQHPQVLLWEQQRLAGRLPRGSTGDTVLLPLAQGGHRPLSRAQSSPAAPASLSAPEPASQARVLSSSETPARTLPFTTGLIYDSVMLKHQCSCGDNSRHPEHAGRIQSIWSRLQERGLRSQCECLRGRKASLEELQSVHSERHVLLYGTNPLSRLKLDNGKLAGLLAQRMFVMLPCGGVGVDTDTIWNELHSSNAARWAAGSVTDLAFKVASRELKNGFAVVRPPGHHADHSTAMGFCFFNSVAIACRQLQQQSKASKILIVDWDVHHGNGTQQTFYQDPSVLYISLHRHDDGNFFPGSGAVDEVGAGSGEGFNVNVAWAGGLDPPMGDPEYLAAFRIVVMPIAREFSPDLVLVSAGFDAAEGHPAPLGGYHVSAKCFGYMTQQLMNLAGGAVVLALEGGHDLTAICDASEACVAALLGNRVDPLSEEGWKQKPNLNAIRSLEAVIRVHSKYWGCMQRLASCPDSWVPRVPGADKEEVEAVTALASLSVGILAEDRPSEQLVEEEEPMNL
Description: Inhibition of recombinant human HDAC7 using Ac-LGK(TFA)-AMC as substrate pre-incubated for 15 mins followed by substrate addition and measured after 60 mins by fluorescence based assay

Histone deacetylase 1 = Histone deacetylase 1 (Homo sapiens, UniProt Q13547); experiment: Inhibition of recombinant human HDAC1 using Ac-LGK(Ac)-AMC as substrate preincubated for 30 mins followed by substrate addition and measured after 90 mins by fluorescence based assay
Chain of Histone deacetylase 1 (Q13547 whole entry): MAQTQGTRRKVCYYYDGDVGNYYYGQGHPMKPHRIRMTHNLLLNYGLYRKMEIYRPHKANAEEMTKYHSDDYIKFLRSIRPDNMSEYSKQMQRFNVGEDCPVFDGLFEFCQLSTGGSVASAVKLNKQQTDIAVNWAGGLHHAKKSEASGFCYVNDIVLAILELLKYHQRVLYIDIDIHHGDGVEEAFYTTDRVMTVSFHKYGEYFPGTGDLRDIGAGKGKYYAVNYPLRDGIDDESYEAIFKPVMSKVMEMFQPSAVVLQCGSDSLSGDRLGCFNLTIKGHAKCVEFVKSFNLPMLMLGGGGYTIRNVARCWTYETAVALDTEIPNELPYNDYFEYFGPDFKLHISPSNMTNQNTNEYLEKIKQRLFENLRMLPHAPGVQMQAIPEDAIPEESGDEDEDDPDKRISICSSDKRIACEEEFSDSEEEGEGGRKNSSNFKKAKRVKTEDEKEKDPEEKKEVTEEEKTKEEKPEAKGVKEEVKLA

[1] = Metabolic stability in Sprague-Dawley rat liver microsomes assessed as half life at 5 uM preincubated for 5 mins followed by NADPH addition and measured after 60 mins by LCMS analysis; type: ADME, Microsome; details: time 65 min
[2] = target: Class 1 histone deacetylase (Homo sapiens, UniProt Q13547+O15379+Q92769+Q9BY41); experiment: Inhibition of Class 1 histone deacetylase in human THP-1 cells using Ac-LGK(Ac)-AMC as substrate incubated for 3 hrs followed by 50 uM SAHA addition and measured after 1 hr by fluorescence based assay; type: cell-based
[3] = target: T2, Protein deacetylase HDAC6 (Homo sapiens, UniProt Q9UBN7); experiment: Inhibition of recombinant human HDAC6 using Boc-Lys(Ac)-AMC as substrate pre-incubated for 15 mins followed by substrate addition and measured after 60 mins by fluorescence based assay
T2 sequence (Q9UBN7 whole entry): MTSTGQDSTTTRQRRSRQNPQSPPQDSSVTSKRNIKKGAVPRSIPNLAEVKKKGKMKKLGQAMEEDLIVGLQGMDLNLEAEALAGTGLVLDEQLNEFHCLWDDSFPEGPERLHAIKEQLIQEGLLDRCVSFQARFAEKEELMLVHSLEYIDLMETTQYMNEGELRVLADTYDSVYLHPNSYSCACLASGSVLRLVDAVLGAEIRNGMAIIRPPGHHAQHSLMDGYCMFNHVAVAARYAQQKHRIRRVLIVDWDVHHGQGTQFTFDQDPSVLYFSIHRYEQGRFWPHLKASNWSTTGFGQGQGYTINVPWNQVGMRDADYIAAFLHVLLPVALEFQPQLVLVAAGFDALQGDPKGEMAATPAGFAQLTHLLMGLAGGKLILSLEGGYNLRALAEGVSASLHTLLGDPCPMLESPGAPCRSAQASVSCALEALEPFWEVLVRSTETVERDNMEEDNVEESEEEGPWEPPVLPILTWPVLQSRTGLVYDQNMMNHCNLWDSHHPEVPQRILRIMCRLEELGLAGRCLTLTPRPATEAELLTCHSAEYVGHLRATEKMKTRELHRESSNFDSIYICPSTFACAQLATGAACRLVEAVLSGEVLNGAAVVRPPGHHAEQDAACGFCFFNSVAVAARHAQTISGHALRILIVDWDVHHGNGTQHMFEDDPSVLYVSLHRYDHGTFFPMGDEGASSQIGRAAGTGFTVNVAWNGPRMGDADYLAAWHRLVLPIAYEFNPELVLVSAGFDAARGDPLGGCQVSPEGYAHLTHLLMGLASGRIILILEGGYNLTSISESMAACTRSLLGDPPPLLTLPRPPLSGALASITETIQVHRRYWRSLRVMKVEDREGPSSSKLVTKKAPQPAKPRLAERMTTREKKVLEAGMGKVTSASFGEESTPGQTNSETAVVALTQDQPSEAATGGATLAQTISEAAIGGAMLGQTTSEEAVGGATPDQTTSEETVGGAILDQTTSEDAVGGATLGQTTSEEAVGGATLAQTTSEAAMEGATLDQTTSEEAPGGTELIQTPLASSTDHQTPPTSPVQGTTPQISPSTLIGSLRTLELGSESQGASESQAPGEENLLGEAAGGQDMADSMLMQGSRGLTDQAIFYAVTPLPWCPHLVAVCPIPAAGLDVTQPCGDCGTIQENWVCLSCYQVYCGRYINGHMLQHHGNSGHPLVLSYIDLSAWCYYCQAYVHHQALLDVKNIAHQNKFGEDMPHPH

Histone deacetylase 8 = target: T3, Histone deacetylase 8 (Homo sapiens, UniProt Q9BY41); experiment: Inhibition of recombinant human HDAC8 using Ac-LGK(TFA)-AMC as substrate preincubated for 30 mins followed by substrate addition and measured after 90 mins by fluorescence based assay
T3 sequence (Q9BY41 whole entry): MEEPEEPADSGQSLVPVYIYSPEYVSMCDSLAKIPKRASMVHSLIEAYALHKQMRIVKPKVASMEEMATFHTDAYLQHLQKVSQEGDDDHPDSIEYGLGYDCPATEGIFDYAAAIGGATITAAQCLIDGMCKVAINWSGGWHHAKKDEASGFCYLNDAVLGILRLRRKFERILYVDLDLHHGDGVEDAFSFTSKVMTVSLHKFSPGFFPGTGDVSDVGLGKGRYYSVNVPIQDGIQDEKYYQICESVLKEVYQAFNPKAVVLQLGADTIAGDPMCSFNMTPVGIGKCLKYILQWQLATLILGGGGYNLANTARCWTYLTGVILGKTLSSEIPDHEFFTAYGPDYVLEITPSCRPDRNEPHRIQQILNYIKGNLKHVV

[4] = Inhibition of Class 2a histone deacetylase in human THP-1 cells using Ac-LGK(TFA)-AMC as substrate incubated for 3 hrs followed by 50 uM SAHA addition and measured after 1 hr by fluorescence based assay; type: cell-based
[5] = Solubility of compound in PEG400 in PBS at 10 mg/ml; type: physicochemical
Histone deacetylase 9 = Histone deacetylase 9 (Homo sapiens, UniProt Q9UKV0); experiment: Inhibition of recombinant human HDAC9 using Ac-LGK(TFA)-AMC as substrate preincubated for 15 mins followed by substrate addition and measured after 60 mins by fluorescence based assay
Chain of Histone deacetylase 9 (Q9UKV0 whole entry): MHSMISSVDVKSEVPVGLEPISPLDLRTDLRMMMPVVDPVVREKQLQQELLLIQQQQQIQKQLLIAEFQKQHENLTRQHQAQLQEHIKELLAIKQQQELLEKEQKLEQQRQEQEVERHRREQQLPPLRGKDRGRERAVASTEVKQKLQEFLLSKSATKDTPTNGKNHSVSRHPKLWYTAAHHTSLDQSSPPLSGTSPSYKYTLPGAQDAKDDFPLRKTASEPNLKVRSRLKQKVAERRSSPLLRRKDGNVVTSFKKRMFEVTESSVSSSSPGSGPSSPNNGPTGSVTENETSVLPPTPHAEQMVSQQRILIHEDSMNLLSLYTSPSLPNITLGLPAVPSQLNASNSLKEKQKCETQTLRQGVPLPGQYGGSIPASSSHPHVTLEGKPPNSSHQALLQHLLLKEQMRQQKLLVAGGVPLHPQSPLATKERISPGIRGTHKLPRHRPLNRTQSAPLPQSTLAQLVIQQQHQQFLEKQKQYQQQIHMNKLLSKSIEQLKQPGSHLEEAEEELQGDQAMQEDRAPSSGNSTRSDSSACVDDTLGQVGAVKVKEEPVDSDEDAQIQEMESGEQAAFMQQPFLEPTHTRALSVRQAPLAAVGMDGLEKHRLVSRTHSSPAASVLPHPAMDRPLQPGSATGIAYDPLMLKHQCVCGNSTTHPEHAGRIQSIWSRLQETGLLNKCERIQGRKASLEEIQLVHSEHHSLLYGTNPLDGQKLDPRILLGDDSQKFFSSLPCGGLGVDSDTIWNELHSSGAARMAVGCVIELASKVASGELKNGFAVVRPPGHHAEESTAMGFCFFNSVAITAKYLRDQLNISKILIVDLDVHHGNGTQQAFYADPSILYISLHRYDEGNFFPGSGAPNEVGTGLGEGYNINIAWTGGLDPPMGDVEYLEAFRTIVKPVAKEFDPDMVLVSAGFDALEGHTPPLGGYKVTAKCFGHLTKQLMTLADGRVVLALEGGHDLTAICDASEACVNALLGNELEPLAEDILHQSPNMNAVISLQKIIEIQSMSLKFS

SMILES: O=C(O)c1ccccc1C(=O)NCc1ccc(C(=O)NO)c(-c2ccccc2)c1
IC50 (Histone deacetylase 1): > 100 µM

SMILES: O=C(NO)c1ccc(CN2Cc3ccccc3C2=O)cc1-c1ccccc1
half-life at 5 µM [1]: 2.82 h
IC50 (Histone deacetylase 1): 10 µM

SMILES: O=C(NO)c1ccc(CN2C(=O)c3ccccc3C2=O)cc1-c1ccccc1
IC50 [2]: > 30 µM
IC50 [3]: 6.4 µM
IC50 (Histone deacetylase 8): 0.072 µM
half-life at 5 µM [1]: 0.917 h
IC50 [4]: 0.3 µM
solubility [5]: Insoluble
IC50 (Histone deacetylase 9): 0.02 µM

SMILES: O=C(NO)c1ccc(CN2C(=O)CCC2=O)cc1-c1ccccc1
IC50 (Histone deacetylase 1): > 100 µM

SMILES: O=C(CCCCCCC(=O)Nc1ccccc1)NO [VORINOSTAT]
half-life at 5 µM [1]: 3.3 h

SMILES: O=C(NCc1ccc(C(=O)NO)c(-c2ccccc2)c1)c1ccccc1F
IC50 (Histone deacetylase 1): 39 µM

SMILES: O=C(NO)c1ccc(CN2C(=O)c3ccccc3C2=O)cc1
IC50 (Histone deacetylase 1): 0.17 µM

Continued, values first:

IC50 (Histone deacetylase 7): 1.7 µM
IC50 (Histone deacetylase 1): 10 µM
SMILES: COc1ccc(CC(=O)NCCCCC(C(=O)NO)c2ccccc2)cc1 (centres undefined)

IC50 (Histone deacetylase 7): 1.1 µM
SMILES: O=C(NO)C(OCCCN1C(=O)c2ccccc2C1=O)c1ccccc1 (centres undefined)

IC50 (Histone deacetylase 1): 20 µM
SMILES: O=C(NO)[C@H](CCCCN1C(=O)c2ccccc2C1=O)c1ccccc1

IC50 (Histone deacetylase 7): 1.1 µM
SMILES: O=C(NO)C(OCCCN1C(=O)c2ccccc2C1=O)c1cccc(Cl)c1 (centres undefined)
